Experiments:
tau [1] = assay: Tau clearance in SH-SY5Y cells by Western blotting; type: cell-based, human
Method: SH-SY5Y human neuroblastoma cells were cultured in 90% DME/F-12 medium (HyClone, SH30023.01) with 10% fetal bovine serum (FBS) (Biological Industries, 04-001-1ACS) and penicillin (100 U/mL)/ streptomycin (100 μg/mL) in a 37 °C incubator with humidified atmosphere of 5% CO2. Human embryonic kidney 293 cells (HEK293) or HEK293 with stable expression of wild-type full-length human tau (termed as HEK293-hTau) were cultured in 90% DMEM/High Glucose medium (HyClone, SH30022.01) containing 10% FBS and 200 μg/mL G418 (ThermoFisher Scientific, 10131027), in a humidified atmosphere of 5% CO2 at 37 °C. Neofect (DNA transfection reagent, TF20121201) was used for plasmids transfection. The cells were placed onto 6-well or 12-well plates. Plasmids (EGFP-hTau or 3xFlag-hTau or the vector), neofect and Opti-MEM medium (Gibco, 31985-070) were made into a mixture in a ratio of 1 μg: 1 μL : 100 μL and then added into each well of the plate. To inhibit proteasome activity, HEK293-hTau cells were cultured with DMEM/High medium containing 20 μM C004019 with or without 10 μM MG132, or the same volume of vehicle (DMSO) for 24 h at 37 °C. To induce tau hyperphosphorylation, SH-SY5Y cells were cultured with DME/F-12 medium containing 10 μM C004019 with or without 1 μM GFX and 1 μM WO for 24 h at 37 °C.
(§1) The cells or hippocampal/cortex tissues were homogenized for ~ 30 min on ice in buffer [50 mM Tris·HCl pH 7.4-7.5, 100 mM NaCl, 1% (vol/vol) Triton X-100, 5 mM EDTA, 1:100 PMSF, 1:1,000 protease inhibitor cocktail containing 4-(2-Aminoethyl)-benzenesulfonyl fluoride hydrochloride, aprotinin, bestatin, leupeptin, E-64, and pepstatin A stored at 4 °C], and then centrifuged at 12,000 × g at 4 °C for 20 min. The supernatant was collected and the protein levels were analyzed using bicinchoninic acid (BCA, KF016, Sigma-Aldrich) by following the manufacturer's instruction (served as soluble protein). The pellet was further incubated with 8% (wt/vol) SDS buffer at 4 °C and then treated by ultrasonic wave to reach a complete resuspension. […] Immunoreactive bands were quantitatively analyzed by Image J2x software.

tau [2] = biological target: T1, tau (UniProt P10636+P40338, P618L); assay: Multiple-doses subcutaneous administration in 3xTg-AD mice, brain tau; type: in vivo, mouse; conditions: 9.5 m-old 3xTg-AD mice, subcutaneous 3 mg/kg every 6 days, 5 times
T1 construct: tissue stock number 34830; host or cells: hippocampus and cortex of 9.5 m-old 3xTg-AD mice
T1 sequence (P10636 1-383 isoform P10636-6 P243L): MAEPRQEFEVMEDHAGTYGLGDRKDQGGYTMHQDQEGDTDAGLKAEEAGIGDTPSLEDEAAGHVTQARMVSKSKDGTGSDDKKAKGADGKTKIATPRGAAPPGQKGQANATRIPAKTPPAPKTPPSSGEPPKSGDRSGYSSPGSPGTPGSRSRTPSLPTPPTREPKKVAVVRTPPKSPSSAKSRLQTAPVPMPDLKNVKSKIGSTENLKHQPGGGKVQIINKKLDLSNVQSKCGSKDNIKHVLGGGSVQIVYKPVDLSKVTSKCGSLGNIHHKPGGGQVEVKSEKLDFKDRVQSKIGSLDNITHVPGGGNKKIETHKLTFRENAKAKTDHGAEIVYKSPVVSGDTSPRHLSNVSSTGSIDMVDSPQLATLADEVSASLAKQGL
T1 sequence (P40338 whole entry): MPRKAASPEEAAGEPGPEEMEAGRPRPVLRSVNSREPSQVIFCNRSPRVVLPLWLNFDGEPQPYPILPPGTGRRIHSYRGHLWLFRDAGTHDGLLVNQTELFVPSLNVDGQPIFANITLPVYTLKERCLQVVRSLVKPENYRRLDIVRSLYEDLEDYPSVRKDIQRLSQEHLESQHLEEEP
T1 sequence (P83940 whole entry partner): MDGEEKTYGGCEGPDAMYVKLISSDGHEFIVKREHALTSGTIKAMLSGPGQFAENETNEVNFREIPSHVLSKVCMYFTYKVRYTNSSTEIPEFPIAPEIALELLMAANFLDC
T1 sequence (P62869 whole entry partner): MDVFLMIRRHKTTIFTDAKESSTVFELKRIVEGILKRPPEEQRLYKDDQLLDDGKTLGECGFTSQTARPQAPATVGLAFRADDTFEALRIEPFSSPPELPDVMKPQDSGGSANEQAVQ
Method: For brain surgery and stereotaxic cerebroventricular drug delivery, the mice were placed in a stereotaxic apparatus and anesthetized with 2% isoflurane (RWD Life Science, R510-22) through a nose cone (300-500 mL/min, RWD Life Science, China, R500). The scalp was incised along the midline between the ears after the mice were sterilized with iodophors and 75% (vol/vol) alcohol. The holes were drilled stereotaxically in the skull at a cerebroventricular location (posterior 0.22 mm, lateral 0.9 mm, and ventral 2.3 mm relative to bregma). Using a microinjection system (Shenzhen RWD Life Technology Co., Ltd; RWD 69100), C004019 (5 μL, 200 μM) was infused at a rate of 0.5 μL/min. The needle was kept in place for 10 min before withdrawal. After the skin was sutured, the mice were placed on a heater for analepsia. For subcutaneous injection, C004019 was diluted with 20% HP-β-CD and injected under the skin on the back neck to reach a final concentration of 3 mg/kg (low dose) or 15 mg/kg (high dose).
as §1, with “resuspension. The suspension was spun (18,000 × g, 4 °C for 20 min) and the supernatant collected (served as insoluble fraction). The supernatant of different faction was respectively mixed with loading buffer (3:1, vol/vol) containing 200 mM Tris-HCl, pH 6.8, 8% SDS, 40% glycerol, and boiled for 10 min.” for “resuspension.”, “software. […]” for “software.”

CC(=O)N1CCCN(c2nc(NCCc3cccs3)nc(N(C)CC(=O)NCCOCCOCCOCC(=O)N[C@H](C(=O)N3C[C@H](O)C[C@H]3C(=O)NCc3ccc(-c4scnc4C)cc3)C(C)(C)C)n2)CC1 [C004019]
p-tau and total tau levels under induced tau hyperphosphorylation (tau [1]; 10 μM C004019 with WO (1 μM) plus GFX (1 μM), 24 h): could efficiently decrease p-tau and total tau levels
phosphorylated tau level (tau [1]; 20 μM): could decrease phosphorylated tau
total tau (Tau5) and p-tau level (tau [1]; Western blotting): concentration-dependent reduction
p-tau and aggregated tau (pS404, AT8 immunohistochemistry, Thioflavin S staining) (tau [2]): Reduction of p-tau and aggregated tau proteins
oligomer tau (T22-positive) in the soluble fraction (tau [2]; Western blotting): significantly reduced T22-positive tau
soluble and insoluble tau levels in hippocampal and cortex extracts (tau [2]; Western blotting): remarkably reduced both soluble and insoluble tau levels
